# BindingDB's records for patent US20230312522 (Sage Therapeutics, 2023)
# Molecular target: Cholesterol 24-hydroxylase (Homo sapiens, UniProt Q9Y6A2)
# Assay: CYP46A1 Enzyme Assay
# Method: Briefly, in a 384-well plate format, 10 uL per well of an enzyme-substrate mixture of CYP46A1 (5 uM final concentration) and Testosterone ([…]) were dispensed to wells containing test compound. For CYP46A1 titration, 5 uL per well of serially diluted CYP46A1 (concentrations including 10 uM, 5 uM, and 2.5 uM) and Testosterone ([…]) were dispensed. For Testosterone titration, 5 uL per well of serially diluted Testosterone (concentrations including 10 uM, 5 uM, and 2.5 uM) and CYP46A1 (concentration of 5 uM) were dispensed. The plates were centrifuged at 1000 rpm for 30 seconds, and then sealed and incubated at 37 C. for 30 minutes. The plate was removed from the incubator, and then 10 uL per well of NADPH-generating system were dispensed to initiate the reaction. The plates were incubated at 37 C. for 15 minutes, added with 80 uL per well of 100% methanol consisting 1 ng/ml diclofenac as internal standard, and then transferred for HPLC-MS.
# Cholesterol 24-hydroxylase, sequence (Q9Y6A2 whole entry): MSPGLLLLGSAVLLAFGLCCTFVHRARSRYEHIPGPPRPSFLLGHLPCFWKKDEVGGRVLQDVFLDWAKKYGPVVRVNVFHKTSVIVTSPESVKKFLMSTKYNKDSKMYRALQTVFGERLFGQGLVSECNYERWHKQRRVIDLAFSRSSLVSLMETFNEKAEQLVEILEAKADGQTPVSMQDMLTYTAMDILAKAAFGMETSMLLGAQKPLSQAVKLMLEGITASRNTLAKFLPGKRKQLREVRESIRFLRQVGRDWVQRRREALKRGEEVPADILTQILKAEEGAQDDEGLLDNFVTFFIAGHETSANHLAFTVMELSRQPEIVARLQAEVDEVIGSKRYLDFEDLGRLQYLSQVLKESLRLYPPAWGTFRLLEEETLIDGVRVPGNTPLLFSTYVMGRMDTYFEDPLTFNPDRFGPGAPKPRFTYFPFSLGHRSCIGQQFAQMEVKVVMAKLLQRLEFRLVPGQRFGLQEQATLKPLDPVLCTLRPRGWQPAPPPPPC
row,IC50 [nM],SMILES
1,< 100,"O=C(c1cccnc1-c1ccncn1)N1CCC(F)(Cc2cc(C(F)(F)F)c(Cl)cn2)CC1 [US20230312522, Compound 39]"
2,< 100,"O=C(c1cccnc1-c1ccncc1)N1CCC(F)(Cc2ccc(Cl)cn2)CC1 [US20230312522, Compound 38]"
3,< 100,"O=C(c1cccnc1-c1ccncn1)N1CCC(F)(Cc2c(F)cc(F)cc2F)CC1 [US20230312522, Compound 26]"
4,< 100,"O=C(c1cccnc1-c1ccncn1)N1CCC(F)([C@@H](O)c2ccc(C(F)(F)F)cc2)CC1 [US20230312522, Compound 14]"
5,< 100,"O=C(c1cccnc1-c1ccncn1)N1CCC(F)([C@H](O)c2ccc(C(F)(F)F)cc2)CC1 [US20230312522, Compound 13]"
6,< 100,"O=C(c1cccnc1-c1ccncn1)N1CCC(F)(Cc2ccc(C(F)(F)F)nc2)CC1 [US20230312522, Compound 23]"
7,< 100,"O=C(c1cccnc1-c1ccncn1)N1CCC(F)(Cc2ccc(C(F)(F)F)cc2F)CC1 [US20230312522, Compound 28]"
8,< 100,"C[C@@H](c1ccc(C(F)(F)F)cc1)C1(F)CCN(C(=O)c2cccnc2-c2ccncn2)CC1 [US20230312522, Compound 34]"
9,< 100,"O=C(c1cccnc1-c1ccncn1)N1CCC(F)(Cc2ccc(Cl)cn2)CC1 [US20230312522, Compound 18]"
10,> 1000,"O=C(c1cccnc1-c1ccncn1)N1CCC(F)(Cc2ncc(C(F)(F)F)cn2)CC1 [US20230312522, Compound 56]"
11,< 100,"O=C(c1cccnc1-c1ccncn1)N1CCC(F)(Cc2ccc(CF)nc2)CC1 [US20230312522, Compound 51]"
12,< 100,"C[C@H](c1ccc(C(F)(F)F)cc1)C1(F)CCN(C(=O)c2cccnc2-c2ccncn2)CC1 [US20230312522, Compound 33]"
13,< 100,"O=C(c1cccnc1-c1ccncn1)N1CCC(F)(Cc2cc(F)cc(F)c2)CC1 [US20230312522, Compound 20]"
14,< 100,"C[C@@H](c1cc(F)cc(F)c1)C1(F)CCN(C(=O)c2cccnc2-c2ccncn2)CC1 [US20230312522, Compound 32]"
15,< 100,"C[C@H](c1cc(F)cc(F)c1)C1(F)CCN(C(=O)c2cccnc2-c2ccncn2)CC1 [US20230312522, Compound 31]"
16,< 100,"O=C(c1cccnc1-c1ccncn1)N1CCC(F)(Cc2ccc(Cl)nc2)CC1 [US20230312522, Compound 46]"
17,< 100,"O=C(c1cccnc1-c1ccncn1)N1CCC(F)(Cc2ccc(F)cc2F)CC1 [US20230312522, Compound 19]"
18,< 100,"O=C(c1cccnc1-c1ccncc1)N1CCC(F)(Cc2ccc(C(F)(F)F)nc2)CC1 [US20230312522, Compound 35]"
19,< 100,"O=C(c1cccnc1-c1ccncc1)N1CCC(F)(Cc2ccc(CF)nc2)CC1 [US20230312522, Compound 54]"
20,< 100,"Cc1cnc(CC2(F)CCN(C(=O)c3cccnc3-c3ccncc3)CC2)cn1 [US20230312522, Compound 52]"
21,< 100,"Cc1ccc(CC2(F)CCN(C(=O)c3cccnc3-c3ccncc3)CC2)cn1 [US20230312522, Compound 57]"
22,< 100,"O=C(c1cccnc1-c1ccncn1)N1CCC(F)(Cc2ccc(Cl)cc2)CC1 [US20230312522, Compound 29]"
23,< 100,"O=C(c1cccnc1-c1ccncc1)N1CCC(F)(Cc2ccc(C(F)F)nc2)CC1 [US20230312522, Compound 55]"
24,< 100,"O=C(c1cccnc1-c1ccncn1)N1CCC(F)(Cc2cccc(C(F)(F)F)n2)CC1 [US20230312522, Compound 24]"
25,> 1000,"O=C(c1cccnc1-c1ccncc1)N1CCC(F)(Cc2cnccn2)CC1 [US20230312522, Compound 45]"
26,> 1000,"O=C(c1cccnc1-c1ccncn1)N1CCC(F)(c2ccccc2)CC1 [US20230312522, Compound 8]"
27,< 100,"O=C(c1cccnc1-c1ccncn1)N1CCC(F)(Cc2ccc(C(F)(F)F)cn2)CC1 [US20230312522, Compound 22]"
28,< 100,"O=C(c1cccnc1-c1ccncc1)N1CCC(F)(Cc2ccc(Cl)nc2)CC1 [US20230312522, Compound 47]"
29,< 100,"Cc1ccc(CC2(F)CCN(C(=O)c3cccnc3-c3ccncc3)CC2)nc1 [US20230312522, Compound 43]"
